From ChEMBL document CHEMBL5724914, “Linking interpersonal differences in gut microbiota composition and drug biotransformation activity” (2024)

details: human gut metagenome, 24 h, 2 µM
Further: call rule not given here.

Bacterial Biotransformation	SMILES
Compound NOT metabolized	O=C(NCc1ccccc1)OCCO [BURAMATE]
Compound metabolized	CC(C)(Oc1ccc(CCNC(=O)c2ccc(Cl)cc2)cc1)C(=O)O [BEZAFIBRATE]

assay: (§1) The drug is tested on Z-007 corresponding to rat gut metagenome with ENA study accession number: PRJEB37062 and ENA sample accession number: ERS12561807 for biotransformation under anaerobic condition. The drug concentrations were measured over 9 timepoints collected between 0 and 24 hours of incubation by liquid-chromatography-coupled mass spectrometry (LC–MS); details: 2 µM

Bacterial Biotransformation	SMILES
Compound NOT metabolized	O=C(NCc1ccccc1)OCCO [BURAMATE]
Compound NOT metabolized	CC(C)(Oc1ccc(CCNC(=O)c2ccc(Cl)cc2)cc1)C(=O)O [BEZAFIBRATE]

assay: as §1, with “on WLS-240” for “on Z-007”, “to human” for “to rat”, “number: ERS12561773” for “number: ERS12561807”; details: 2 µM

Bacterial Biotransformation	SMILES
Compound NOT metabolized	O=C(NCc1ccccc1)OCCO [BURAMATE]
Compound metabolized	CC(C)(Oc1ccc(CCNC(=O)c2ccc(Cl)cc2)cc1)C(=O)O [BEZAFIBRATE]

details: human gut metagenome, 24 h, 2 µM; remark: another data set of the same source

Bacterial Biotransformation	SMILES
Compound NOT metabolized	O=C(NCc1ccccc1)OCCO [BURAMATE]
Compound metabolized	CC(C)(Oc1ccc(CCNC(=O)c2ccc(Cl)cc2)cc1)C(=O)O [BEZAFIBRATE]

assay: as §1, with “on WLS-082” for “on Z-007”, “to human” for “to rat”, “number: ERS12561751” for “number: ERS12561807”; details: 2 µM

Bacterial Biotransformation	SMILES
Compound NOT metabolized	O=C(NCc1ccccc1)OCCO [BURAMATE]
Compound metabolized	CC(C)(Oc1ccc(CCNC(=O)c2ccc(Cl)cc2)cc1)C(=O)O [BEZAFIBRATE]

details: human gut metagenome, 24 h, 2 µM; remark: another data set of the same source

Bacterial Biotransformation	SMILES
Compound NOT metabolized	O=C(NCc1ccccc1)OCCO [BURAMATE]
Compound metabolized	CC(C)(Oc1ccc(CCNC(=O)c2ccc(Cl)cc2)cc1)C(=O)O [BEZAFIBRATE]

assay: as §1, with “on Z-003” for “on Z-007”, “to pig” for “to rat”, “number: ERS12561803” for “number: ERS12561807”; details: 2 µM

Bacterial Biotransformation	SMILES
Compound NOT metabolized	O=C(NCc1ccccc1)OCCO [BURAMATE]
Compound metabolized	CC(C)(Oc1ccc(CCNC(=O)c2ccc(Cl)cc2)cc1)C(=O)O [BEZAFIBRATE]

assay: as §1, with “Z-029” for “Z-007”, “ERS12561828” for “ERS12561807”; details: 2 µM

Bacterial Biotransformation	SMILES
Compound NOT metabolized	O=C(NCc1ccccc1)OCCO [BURAMATE]
Compound NOT metabolized	CC(C)(Oc1ccc(CCNC(=O)c2ccc(Cl)cc2)cc1)C(=O)O [BEZAFIBRATE]

details: human gut metagenome, 24 h, 2 µM; remark: another data set of the same source

Bacterial Biotransformation	SMILES
Compound NOT metabolized	O=C(NCc1ccccc1)OCCO [BURAMATE]
Compound metabolized	CC(C)(Oc1ccc(CCNC(=O)c2ccc(Cl)cc2)cc1)C(=O)O [BEZAFIBRATE]

details: human gut metagenome, 24 h, 2 µM; remark: another data set of the same source

Bacterial Biotransformation	SMILES
Compound NOT metabolized	O=C(NCc1ccccc1)OCCO [BURAMATE]
Compound metabolized	CC(C)(Oc1ccc(CCNC(=O)c2ccc(Cl)cc2)cc1)C(=O)O [BEZAFIBRATE]

details: human gut metagenome, 24 h, 2 µM; remark: another data set of the same source

Bacterial Biotransformation	SMILES
Compound NOT metabolized	O=C(NCc1ccccc1)OCCO [BURAMATE]
Compound metabolized	CC(C)(Oc1ccc(CCNC(=O)c2ccc(Cl)cc2)cc1)C(=O)O [BEZAFIBRATE]

assay: as §1, with “on WLS-350” for “on Z-007”, “to human” for “to rat”, “number: ERS12561789” for “number: ERS12561807”; details: 2 µM

Bacterial Biotransformation	SMILES
Compound NOT metabolized	O=C(NCc1ccccc1)OCCO [BURAMATE]
Compound metabolized	CC(C)(Oc1ccc(CCNC(=O)c2ccc(Cl)cc2)cc1)C(=O)O [BEZAFIBRATE]

assay: as §1, with “Z-005” for “Z-007”, “to” for “to rat gut”, “ERS12561805” for “ERS12561807”; details: 2 µM

Bacterial Biotransformation	SMILES
Compound NOT metabolized	O=C(NCc1ccccc1)OCCO [BURAMATE]
Compound NOT metabolized	CC(C)(Oc1ccc(CCNC(=O)c2ccc(Cl)cc2)cc1)C(=O)O [BEZAFIBRATE]

details: human gut metagenome, 24 h, 2 µM; remark: another data set of the same source

Bacterial Biotransformation	SMILES
Compound NOT metabolized	O=C(NCc1ccccc1)OCCO [BURAMATE]
Compound metabolized	CC(C)(Oc1ccc(CCNC(=O)c2ccc(Cl)cc2)cc1)C(=O)O [BEZAFIBRATE]

details: human gut metagenome, 24 h, 2 µM; remark: another data set of the same source

Bacterial Biotransformation	SMILES
Compound NOT metabolized	O=C(NCc1ccccc1)OCCO [BURAMATE]
Compound metabolized	CC(C)(Oc1ccc(CCNC(=O)c2ccc(Cl)cc2)cc1)C(=O)O [BEZAFIBRATE]

assay: as §1, with “Z-012” for “Z-007”, “to” for “to rat gut”, “ERS12561812” for “ERS12561807”; details: 2 µM

Bacterial Biotransformation	SMILES
Compound NOT metabolized	O=C(NCc1ccccc1)OCCO [BURAMATE]
Compound NOT metabolized	CC(C)(Oc1ccc(CCNC(=O)c2ccc(Cl)cc2)cc1)C(=O)O [BEZAFIBRATE]

assay: as §1, with “on Z-018” for “on Z-007”, “to pig” for “to rat”, “number: ERS12561817” for “number: ERS12561807”; details: 2 µM

Bacterial Biotransformation	SMILES
Compound NOT metabolized	O=C(NCc1ccccc1)OCCO [BURAMATE]
Compound NOT metabolized	CC(C)(Oc1ccc(CCNC(=O)c2ccc(Cl)cc2)cc1)C(=O)O [BEZAFIBRATE]

details: human gut metagenome, 24 h, 2 µM; remark: another data set of the same source

Bacterial Biotransformation	SMILES
Compound NOT metabolized	O=C(NCc1ccccc1)OCCO [BURAMATE]
Compound metabolized	CC(C)(Oc1ccc(CCNC(=O)c2ccc(Cl)cc2)cc1)C(=O)O [BEZAFIBRATE]

details: human gut metagenome, 24 h, 2 µM; remark: another data set of the same source

Bacterial Biotransformation	SMILES
Compound NOT metabolized	O=C(NCc1ccccc1)OCCO [BURAMATE]
Compound metabolized	CC(C)(Oc1ccc(CCNC(=O)c2ccc(Cl)cc2)cc1)C(=O)O [BEZAFIBRATE]

details: human gut metagenome, 24 h, 2 µM; remark: another data set of the same source

Bacterial Biotransformation	SMILES
Compound NOT metabolized	O=C(NCc1ccccc1)OCCO [BURAMATE]
Compound metabolized	CC(C)(Oc1ccc(CCNC(=O)c2ccc(Cl)cc2)cc1)C(=O)O [BEZAFIBRATE]
